Where “and” joins values, the source holds several entries; their conditions need not be identical. Identical values can stand only once.
Tests used:
[1] = system: embryonic stages of S. digitata; assay: Intra cellular activation of caspase-3 like cysteine proteinases, anti active caspase-3-PE staining; assay type: cell-based, Setaria digitata; conditions: 24 hr
Method: Adult female filarial worms Setaria digitata were collected from the peritoneum of cattle, slaughtered at a nearby abattoir in sterile Hanks Balanced Salt Solution (HBSS) medium (Sigma H 2387-1L) and transported to the laboratory in a sterile container. The medium containing 1% glucose (Sigma G 7528), Penicillin 100 units/ml, Streptomycin 100 μg/ml (Sigma P 4333). And Amphotericin-B 0.25 μg/ml (Sigma A 2942) was buffered with NaHCO3 (Sigma S 5761). About 5 to 7 worms were taken in a petridish, washed three times in medium, dissected into small pieces in 10 ml of medium under sterile conditions and incubated at 37° C. for 30 minutes to allow the release of embryonic stages (eggs and microfilariae) into the medium. The embryonic stages were harvested into sterile 15 ml. centrifuge tubes and washed three times by centrifuging at 300 g for 10 minutes each with medium and the final pellet was suspended in 1 ml. of RPMI-1640 medium (Sigma R 8005) supplemented with 10% FBS (Sigma F 2442) The number of embryonic stages of S. digitata in the above preparation were counted using light microscope, and the suspension was taken in RPMI-1640 medium containing 10% FBS at 1×10^5 embryonic stages/ml. One ml. each was dispensed into individual wells of a 24 well tissue culture plate. One set of wells was taken as untreated control containing only medium with 10% FBS. […] Motility of the Mf was scored under an inverted microscope. After appropriate treatment and incubation, each set of the cultured embryonic stages of S. digitata were harvested from the 24 well tissue culture plate separately in 15 ml. sterile centrifuge tubes, washed with PBS twice and stained as per requirement following manufacturer's instructions as described below. This was followed by two times washing with PBS and final suspension of the stained embryonic stages was taken in 0.5 ml of sheath fluid (BD Biosciences 342003) before their acquisition in the flow cytometer (BD FACS Calibur, Becten and Dickinson, USA). Analysis was performed on 10,000-acquired events depicted as Dot Plots and Histogram Plots using Cellquest Pro soft ware. All plots were representative of at least 3 experiments. […] After in vitro culture for 24 hours with apoptosis inducing reagents the embryonic stages were harvested in 15 ml. sterile centrifuge tubes and fixed for 60 minutes at 0° C. in 1% paraformaldehyde (Sigma P 6148) in PBS. The suspension was washed first with PBS and then with 1× permeabilisation buffer (eBioscience 00-8333-56) and finally resuspended in 100 μl of 1× permeabilisation buffer at 1×10^5 embryonic stages per ml. This suspension was then incubated for 45 minutes with 20 μl of anti active caspase-3-PE (BD Biosciences 559762). This was followed by washing with PBS twice and analysis by Flow cytometer.

[2] = system: embryonic stages of S. digitata; assay: Intra cellular expression of CED-9 protein, flow cytometry; assay type: cell-based, Setaria digitata; conditions: 24 hr
Method: Adult female filarial worms Setaria digitata were collected from the peritoneum of cattle, slaughtered at a nearby abattoir in sterile Hanks Balanced Salt Solution (HBSS) medium (Sigma H 2387-1L) and transported to the laboratory in a sterile container. The medium containing 1% glucose (Sigma G 7528), Penicillin 100 units/ml, Streptomycin 100 μg/ml (Sigma P 4333). And Amphotericin-B 0.25 μg/ml (Sigma A 2942) was buffered with NaHCO3 (Sigma S 5761). About 5 to 7 worms were taken in a petridish, washed three times in medium, dissected into small pieces in 10 ml of medium under sterile conditions and incubated at 37° C. for 30 minutes to allow the release of embryonic stages (eggs and microfilariae) into the medium. The embryonic stages were harvested into sterile 15 ml. centrifuge tubes and washed three times by centrifuging at 300 g for 10 minutes each with medium and the final pellet was suspended in 1 ml. of RPMI-1640 medium (Sigma R 8005) supplemented with 10% FBS (Sigma F 2442) The number of embryonic stages of S. digitata in the above preparation were counted using light microscope, and the suspension was taken in RPMI-1640 medium containing 10% FBS at 1×10^5 embryonic stages/ml. One ml. each was dispensed into individual wells of a 24 well tissue culture plate. One set of wells was taken as untreated control containing only medium with 10% FBS. […] Motility of the Mf was scored under an inverted microscope. After appropriate treatment and incubation, each set of the cultured embryonic stages of S. digitata were harvested from the 24 well tissue culture plate separately in 15 ml. sterile centrifuge tubes, washed with PBS twice and stained as per requirement following manufacturer's instructions as described below. This was followed by two times washing with PBS and final suspension of the stained embryonic stages was taken in 0.5 ml of sheath fluid (BD Biosciences 342003) before their acquisition in the flow cytometer (BD FACS Calibur, Becten and Dickinson, USA). Analysis was performed on 10,000-acquired events depicted as Dot Plots and Histogram Plots using Cellquest Pro soft ware. All plots were representative of at least 3 experiments. The distinctly clustered populations obtained consistently in the Dot plots for the intra uterine embryonic stages of S. digitata (FIG. 1 a) were gated for Mfs (R-1) and eggs (R-2 and R-3) and analyzed for different assays for apoptosis as described below. After in vitro culture for 24 hours with apoptosis inducing reagents the embryonic stages were harvested in 15 ml. sterile centrifuge tubes and fixed for 60 minutes at 0° C. in 1% paraformaldehyde (Sigma P 6148) in PBS. The suspension was washed first with PBS and then with 1× permeabilisation buffer (eBioscience 00-8333-56) and finally resuspended in 100 μl of 1× permeabilisation buffer at 1×10^5 embryonic stages per ml. The intracellular expression of CED-9 was scored by incubation of the fixed and permeabilised embryonic stages with primary goat antibodies—anti CED-9 (Santacruz sc-9202) followed by probing with PE conjugated secondary anti goat IgG-PE (Santacruz sc-3747) antibodies. Incubation of both primary and secondary antibodies (both 1/100 diluted) was done successively in 1× permeabilisation buffer (e Bioscience 00-8333-56) for 1 hr and 45 minutes respectively. The suspension of stained embryonic stages was then washed with PBS twice and finally reading was taken by flow cytometry or confocal microscopy.

Compound	GMI (Geometric Mean Intensity) of Fluorescence, Caspase-3 Activation ([1]; Eggs, 1 μM)	GMI (Geometric Mean Intensity) of Fluorescence, Caspase-3 Activation ([1]; Microfilariae, 1 μM)	GMI (Geometric Mean Intensity) of Fluorescence, CED-9 Expression ([2]; Eggs, 1 μM)	GMI (Geometric Mean Intensity) of Fluorescence, CED-9 Expression ([2]; Microfilariae, 1 μM)	GMI (Geometric Mean Intensity) of Fluorescence, Caspase-3 Activation ([1]; Eggs, 10 μM)	GMI (Geometric Mean Intensity) of Fluorescence, Caspase-3 Activation ([1]; Microfilariae, 10 μM)	GMI (Geometric Mean Intensity) of Fluorescence, CED-9 Expression ([2]; Eggs, 10 μM)	GMI (Geometric Mean Intensity) of Fluorescence, CED-9 Expression ([2]; Microfilariae, 10 μM)
CN[C@@H]1C[C@H]2O[C@@](C)([C@@H]1OC)n1c3ccccc3c3c4c(c5c6ccccc6n2c5c31)C(=O)NC4 [Staurosporine]	50.13 and 54.95 and 50.97	6.20 and 6.72	106.36 and 109.16 and 107.34	10.32 and 9.56 and 11.02				
CC1=CC(=O)c2c(O)cccc2C1=O [Plumbagin]					82.35 and 87.32 and 80.16	10.57 and 11.22 and 14.16	206.36 and 202.92 and 205.16	30.96 and 33.25 and 32.27
OO [H2O2]					56.95 and 61.37 and 60.20	7.57 and 9.69 and 12.34	115.67 and 123.32 and 113.26	15.66 and 17.26 and 16.13

Source: patent US20110124523A1, “High Throughput Method for Detecting Apoptosis of Embryonic Stages of Metazoan Helminthic Parasites” (INSTITUTE OF LIFE SCIENCES, priority 2009, published 2011)
